Experimental data as given in patent US10093630B2, “Pyrazole compounds and methods of making and using same” (ABIDE THERAPEUTICS, INC., priority 2014, dated 2018).

Key:
Experiment in all cases: In vitro competitive activity-based protein profiling (gel-based, FP-Rh or HT-01 probe)
Assay type in all cases: biochemical
PLA2G7 = target: T1, PLA2G7 (Mus musculus, UniProt Q60963); settings: for inhibition at 1 µM: 1 μM inhibitor, read-out: % Inhibition at 1 μM, D = PLA2G7; for inhibition at 10 µM: 10 μM inhibitor, read-out: % Inhibition at 10 μM, D = PLA2G7
T1 construct: Proteomes (mouse brain membrane fraction or cell lysates); from tissue; host or cells: mouse brain membrane fraction (or cell lysates, not specified)
T1 sequence (Q60963 22-440): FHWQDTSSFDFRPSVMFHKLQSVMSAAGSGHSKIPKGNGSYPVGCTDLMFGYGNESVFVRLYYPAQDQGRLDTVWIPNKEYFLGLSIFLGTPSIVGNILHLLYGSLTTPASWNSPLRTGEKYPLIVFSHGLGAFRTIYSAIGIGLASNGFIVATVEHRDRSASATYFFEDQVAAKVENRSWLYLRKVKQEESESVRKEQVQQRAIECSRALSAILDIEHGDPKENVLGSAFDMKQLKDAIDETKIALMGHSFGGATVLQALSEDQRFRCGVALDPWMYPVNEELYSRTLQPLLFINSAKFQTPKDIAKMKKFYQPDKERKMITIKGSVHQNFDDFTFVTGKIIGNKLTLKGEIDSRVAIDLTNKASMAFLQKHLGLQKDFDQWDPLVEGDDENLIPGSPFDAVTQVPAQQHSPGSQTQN
In short: (§1)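 Competitive labelling format in mouse brain membrane fractions or lysates at 1.0 mg/mL total protein: compounds preincubate 30 min at 37° C, activity probe FP-Rh or HT-01 then reacts 30 min at 37° C. Gel band fluorescence gives target activity.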

FAAH = target: T2, FAAH (Mus musculus, UniProt O08914); settings: for inhibition at 1 µM: 1 μM inhibitor, read-out: % Inhibition at 1 μM, B = FAAH; for inhibition at 10 µM: 10 μM inhibitor, read-out: % Inhibition at 10 μM, B = FAAH; for IC50: mouse brain membrane fraction or cell lysates, 30 min preincubation at 37° C., read-out: Mouse (IC50 value, nM) FAAH
T2 construct: Proteomes (mouse brain membrane fraction or cell lysates); from tissue; host or cells: mouse brain membrane fraction (or cell lysates, not specified)
T2 sequence (O08914 1-579): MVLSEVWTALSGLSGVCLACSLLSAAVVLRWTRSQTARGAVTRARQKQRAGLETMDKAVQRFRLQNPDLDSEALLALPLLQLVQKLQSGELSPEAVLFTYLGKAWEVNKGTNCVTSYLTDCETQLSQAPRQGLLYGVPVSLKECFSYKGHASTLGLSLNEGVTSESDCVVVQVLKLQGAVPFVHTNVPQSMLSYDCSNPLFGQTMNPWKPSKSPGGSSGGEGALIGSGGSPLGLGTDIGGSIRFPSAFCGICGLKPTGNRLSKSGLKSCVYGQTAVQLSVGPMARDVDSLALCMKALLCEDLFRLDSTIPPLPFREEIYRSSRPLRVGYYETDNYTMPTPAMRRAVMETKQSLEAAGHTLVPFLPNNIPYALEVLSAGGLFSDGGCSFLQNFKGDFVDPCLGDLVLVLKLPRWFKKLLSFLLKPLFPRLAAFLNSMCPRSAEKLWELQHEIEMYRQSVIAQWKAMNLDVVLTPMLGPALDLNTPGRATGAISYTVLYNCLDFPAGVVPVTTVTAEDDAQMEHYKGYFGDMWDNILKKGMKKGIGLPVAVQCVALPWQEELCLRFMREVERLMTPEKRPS
In short: as §1

ABHD6 = target: T3, ABHD6 (Mus musculus, UniProt Q8R2Y0); settings: for inhibition at 1 µM: 1 μM inhibitor, read-out: % Inhibition at 1 μM, C = ABHD6; for inhibition at 10 µM: 10 μM inhibitor, read-out: % Inhibition at 10 μM, C = ABHD6; for IC50: mouse brain membrane fraction or cell lysates, 30 min preincubation at 37° C., read-out: Mouse (IC50 value, nM) ABHD6
T3 construct: Proteomes (mouse brain membrane fraction or cell lysates); from tissue; host or cells: mouse brain membrane fraction (or cell lysates, not specified)
T3 sequence (Q8R2Y0 1-336): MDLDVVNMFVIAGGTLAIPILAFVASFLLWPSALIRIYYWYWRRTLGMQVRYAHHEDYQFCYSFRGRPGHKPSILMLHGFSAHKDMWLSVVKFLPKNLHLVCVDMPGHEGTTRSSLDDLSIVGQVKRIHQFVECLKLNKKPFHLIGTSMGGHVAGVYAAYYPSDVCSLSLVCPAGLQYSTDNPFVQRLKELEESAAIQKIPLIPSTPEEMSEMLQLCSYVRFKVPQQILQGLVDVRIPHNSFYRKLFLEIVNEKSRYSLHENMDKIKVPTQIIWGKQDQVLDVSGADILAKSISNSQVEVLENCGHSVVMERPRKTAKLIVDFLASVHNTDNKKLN
In short: as §1

MAGL = target: T4, MAGL (Mus musculus, UniProt O35678); settings: for inhibition at 1 µM: 1 μM inhibitor; for inhibition at 10 µM: 10 μM inhibitor; for IC50: mouse brain membrane fraction or cell lysates, 30 min preincubation at 37° C., read-out: Mouse (IC50 value, nM) MAGL
T4 construct: Proteomes (mouse brain membrane fraction or cell lysates); from tissue; host or cells: mouse brain membrane fraction (or cell lysates, not specified)
T4 sequence (O35678 1-303): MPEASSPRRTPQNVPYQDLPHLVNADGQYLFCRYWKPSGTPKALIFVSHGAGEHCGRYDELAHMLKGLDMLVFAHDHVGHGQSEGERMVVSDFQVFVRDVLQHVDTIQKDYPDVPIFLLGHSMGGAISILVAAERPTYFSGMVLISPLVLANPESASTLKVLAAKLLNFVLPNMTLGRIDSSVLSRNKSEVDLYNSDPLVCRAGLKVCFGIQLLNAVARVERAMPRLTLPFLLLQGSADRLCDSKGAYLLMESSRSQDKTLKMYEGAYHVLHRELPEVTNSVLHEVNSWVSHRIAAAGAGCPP
In short: as §1

| Compound | inhibition at 1 µM (PLA2G7) [%] | inhibition at 10 µM (PLA2G7) [%] | inhibition at 1 µM (FAAH) [%] | inhibition at 10 µM (FAAH) [%] | inhibition at 1 µM (ABHD6) [%] | inhibition at 10 µM (ABHD6) [%] | inhibition at 1 µM (MAGL) [%] | inhibition at 10 µM (MAGL) [%] | IC50 (FAAH) [nM] | IC50 (ABHD6) [nM] | IC50 (MAGL) [nM] |
| --- | --- | --- | --- | --- | --- | --- | --- | --- | --- | --- | --- |
| O=C(c1cnn(C(=O)N2CCN(Cc3ccncn3)CC2)c1)N1CCCCC1 [Example 73, Piperidin-1-yl(1-(4-(pyrimidin-4-ylmethyl)piperazine-1-carbonyl)-1H-pyrazol-4-yl)methanone] | > 75 | > 75 | < 25 | 25 to 75 | < 25 | > 75 | < 25 | < 25 |  |  |  |
| O=C(c1cnn(C(=O)N2CCN(Cc3nccs3)CC2)c1)N1CCCCC1 [Example 74, Piperidin-1-yl(1-(4-(thiazol-2-ylmethyl)piperazine-1-carbonyl)-1H-pyrazol-4-yl)methanone] | > 75 | > 75 | < 25 | > 75 | > 75 | > 75 | < 25 | < 25 |  |  |  |
| O=C(c1cnn(C(=O)N2CCN(Cc3cncnc3)CC2)c1)N1CCCCC1 [Example 75, Piperidin-1-yl(1-(4-(pyrimidin-5-ylmethyl)piperazine-1-carbonyl)-1H-pyrazol-4-yl)methanone] | > 75 | > 75 | < 25 | < 25 | < 25 | > 75 | < 25 | < 25 |  |  |  |
| Cc1cc(-c2ccccc2)ccc1CN1CCN(C(=O)n2cc(C(=O)N3CCCCC3)cn2)CC1 [Example 76, (4-((3-Methyl-[1,1′-biphenyl]-4-yl)methyl)piperazin-1-yl)(4-(piperidine-1-carbonyl)-1H-pyrazol-1-yl)methanone] | > 75 | > 75 | > 75 | > 75 | > 75 | > 75 | > 75 | > 75 | < 100 | 100 to 1000 | 100 to 1000 |
| O=C(c1cnn(C(=O)N2CCN(Cc3ccccn3)CC2)c1)N1CCOCC1 [Example 77, (4-(Morpholine-4-carbonyl)-1H-pyrazol-1-yl)(4-(pyridin-2-ylmethyl)piperazin-1-yl)methanone] | < 25 | > 75 |  | < 25 | < 25 | > 75 |  | < 25 |  |  |  |
| O=C(c1cnn(C(=O)N2CCN(Cc3ccc4c(c3)OCO4)CC2)c1)N1CCCC1 [Example 78, (4-(Benzo[d][1,3]dioxol-5-ylmethyl)piperazin-1-yl)(4-(pyrrolidine-1-carbonyl)-1H-pyrazol-1-yl)methanone] | < 25 | > 75 | > 75 | > 75 | > 75 | > 75 | < 25 | > 75 |  |  |  |
| O=C(c1cnn(C(=O)N2CCN(Cc3ccncc3)CC2)c1)N1CCCC1 [Example 79, (4-(Pyridin-4-ylmethyl)piperazin-1-yl)(4-(pyrrolidine-1-carbonyl)-1H-pyrazol-1-yl)methanone] | < 25 | > 75 |  | 25 to 75 | 25 to 75 | > 75 |  | < 25 |  |  |  |

Now from value to compound:

| inhibition at 1 µM (PLA2G7) [%] | inhibition at 10 µM (PLA2G7) [%] | inhibition at 1 µM (FAAH) [%] | inhibition at 10 µM (FAAH) [%] | inhibition at 1 µM (ABHD6) [%] | inhibition at 10 µM (ABHD6) [%] | inhibition at 1 µM (MAGL) [%] | inhibition at 10 µM (MAGL) [%] | IC50 (FAAH) [nM] | IC50 (ABHD6) [nM] | IC50 (MAGL) [nM] | Compound |
| --- | --- | --- | --- | --- | --- | --- | --- | --- | --- | --- | --- |
| < 25 | > 75 |  | 25 to 75 | 25 to 75 | > 75 |  | < 25 |  |  |  | O=C(c1cnn(C(=O)N2CCN(Cc3cccnc3)CC2)c1)N1CCCC1 [Example 80, (4-(Pyridin-3-ylmethyl)piperazin-1-yl)(4-(pyrrolidine-1-carbonyl)-1H-pyrazol-1-yl)methanone] |
| < 25 | > 75 |  | > 75 | < 25 | > 75 |  | < 25 |  |  |  | O=C(c1cnn(C(=O)N2CCN(Cc3ccccn3)CC2)c1)N1CCCC1 [Example 81, (4-(Pyridin-2-ylmethyl)piperazin-1-yl)(4-(pyrrolidine-1-carbonyl)-1H-pyrazol-1-yl)methanone] |
| < 25 | > 75 |  | 25 to 75 | < 25 | > 75 |  | < 25 |  |  |  | O=C(c1cnn(C(=O)N2CCN(Cc3ccncn3)CC2)c1)N1CCCC1 [Example 82, (4-(Pyrimidin-4-ylmethyl)piperazin-1-yl)(4-(pyrrolidine-1-carbonyl)-1H-pyrazol-1-yl)methanone] |
| < 25 | > 75 | < 25 | > 75 | < 25 | > 75 | < 25 | < 25 |  |  |  | O=C(c1cnn(C(=O)N2CCN(Cc3nccs3)CC2)c1)N1CCCC1 [Example 83, Pyrrolidin-1-yl(1-(4-(thiazol-2-ylmethyl)piperazine-1-carbonyl)-1H-pyrazol-4-yl)methanone] |
| < 25 | > 75 | < 25 | < 25 | < 25 | 25 to 75 | < 25 | < 25 |  |  |  | O=C(c1cnn(C(=O)N2CCN(Cc3cncnc3)CC2)c1)N1CCCC1 [Example 84, (4-(Pyrimidin-5-ylmethyl)piperazin-1-yl)(4-(pyrrolidine-1-carbonyl)-1H-pyrazol-1-yl)methanone] |
| < 25 | > 75 | > 75 | > 75 | > 75 | > 75 | > 75 | > 75 | < 100 | 100 to 1000 | 100 to 1000 | Cc1cc(-c2ccccc2)ccc1CN1CCN(C(=O)n2cc(C(=O)N3CCCC3)cn2)CC1 [Example 85, (4-((3-Methyl-[1,1′-biphenyl]-4-yl)methyl)piperazin-1-yl)(4-(pyrrolidine-1-carbonyl)-1H-pyrazol-1-yl)methanone] |
| < 25 | > 75 | > 75 | > 75 | 25 to 75 | > 75 | < 25 | > 75 |  |  |  | O=C(c1cnn(C(=O)N2CCN(Cc3ccc4c(c3)OCO4)CC2)c1)N1CCC1 [Example 86, Azetidin-1-yl(1-(4-(benzo[d][1,3]dioxol-5-ylmethyl)piperazine-1-carbonyl)-1H-pyrazol-4-yl)methanone] |
